From ChEMBL document CHEMBL3228010, “Potential antitumor agents. 29. Quantitative structure-activity relationships for the antileukemic bisquaternary ammonium heterocycles” (J Med Chem, 1979)

Columns and labels:
[1] = tested on: Mus musculus; assay: Toxicity in ip dosed C3H X DBA2 F1 hybrid mouse […] with mouse L1210 cells on day 0 and dosed once daily on days 1 to 5 measured after 50 days; assay type: organism-based; conditions: in vivo, 1200 h
[2] = organism: Bos taurus; assay: Displacement of ethidium from calf thymus DNA by fluorimetric method
[3] = Displacement of ethidium from poly[d(A-T)]-poly[d(A-T)] DNA by fluorimetric method
[4] = tested on: L1210; assay: Antitumor activity against mouse L1210 cells […] in ip dosed C3H X DBA2 F1 hybrid mouse on day 0 and dosed at LD10 level once daily on days 1 to 5 assessed as increase in life span relative to control; assay type: functional
[5] = Lipophilic-hydrophilic balance, Rm of the compound by partition chromatography; assay type: physicochemical
[6] = Displacement of ethidium from poly[d(G-C)]-poly[d(G-C)] DNA (unknown origin) by fluorimetric method
[7] = tested on: L1210; assay: Antitumor activity against mouse L1210 cells […] in ip dosed C3H X DBA2 F1 hybrid mouse on day 0 and dosed once daily on days 1 to 5 assessed as increase in life span relative to control; assay type: functional

Row | SMILES | LD10 [1] | C50 [2] | C50 [3] | log(ILSmax) [4] | Rm [5] | C50 [6] | D40 [7]
1 | Br.C/C(=N\NC(=N)N)c1ccc(NC(=O)c2ccc(Nc3cc[n+](C)c4ccc(N)cc34)cc2N)cc1.[Br-] | 40 mg/kg | 0.51 µM | 0.21 µM | 2.25 | -0.41 | 0.78 µM | 1.7 mg/kg
2 | COc1ccc2c(c1)c(Nc1ccc(C(=O)Nc3ccc(Nc4cc[n+](C)cc4)cc3)cc1)cc[n+]2C.Cc1ccc(S(=O)(=O)[O-])cc1.Cc1ccc(S(=O)(=O)[O-])cc1 | 50 mg/kg | 0.68 µM | 0.19 µM | 2.2 | 0.46 | 1.15 µM | 1.5 mg/kg
3 | C[n+]1ccc(Nc2ccc(C(=O)Nc3ccc(Nc4cc[n+](C)c5cc(N)ccc45)cc3)cc2)cc1.Cc1ccc(S(=O)(=O)[O-])cc1.Cc1ccc(S(=O)(=O)[O-])cc1 | 25 mg/kg | 0.43 µM | 0.12 µM | 2.34 | -0.04 | 1.04 µM | 1.5 mg/kg
4 | C[n+]1cccc2ccc(NC(=O)c3ccc(NC(=O)c4ccc(C(=O)Nc5ccc6ccc[n+](C)c6c5)cc4)cc3)cc21.Cc1ccc(S(=O)(=O)[O-])cc1.Cc1ccc(S(=O)(=O)[O-])cc1 | 34 mg/kg | 0.16 µM | 0.16 µM | 1.85 | -0.76 | 0.25 µM | 15 mg/kg
5 | C[n+]1c2ccccc2c(Nc2ccc(NC(=O)Nc3ccc(NC(=N)NC(=N)N)cc3)cc2)c2ccc(N)cc21.Cl.[Cl-] | 200 mg/kg | 0.09 µM | 0.06 µM | 2.48 | 0.46 | 0.13 µM | 8 mg/kg
6 | C[n+]1ccc(-c2ccc(NC(=O)c3ccc(Nc4cc[n+](C)c5ccccc45)cc3)cc2)cc1.Cc1ccc(S(=O)(=O)[O-])cc1.Cc1ccc(S(=O)(=O)[O-])cc1 | 15 mg/kg | 0.89 µM | 0.3 µM | 2.08 | 0.33 | 3 µM | 2.2 mg/kg
7 | C[n+]1cccc(NC(=O)c2ccc(NC(=O)c3ccc(C(=O)Nc4ccc(C(=O)Nc5ccc[n+](C)c5)cc4)c(N)c3)cc2)c1.Cc1ccc(S(=O)(=O)[O-])cc1.Cc1ccc(S(=O)(=O)[O-])cc1 | 20 mg/kg | 0.53 µM | 0.37 µM | 2.17 | -0.63 | 0.93 µM | 3.9 mg/kg
8 | C[n+]1ccc(Nc2ccc(NC(=O)/C=C/c3ccc(C(=O)Nc4ccc(Nc5cc[n+](C)cc5)c(N)c4)cc3)cc2N)cc1.Cc1ccc(S(=O)(=O)[O-])cc1.Cc1ccc(S(=O)(=O)[O-])cc1 | 6.7 mg/kg | 1.5 µM | 0.08 µM | 2.3 | 0.04 | 1.5 µM | 1.4 mg/kg
9 | C[n+]1cccc2cc(NC(=O)c3ccc(NC(=O)c4ccc(C(=O)Nc5ccc6c(ccc[n+]6C)c5)cc4)cc3)ccc21.Cc1ccc(S(=O)(=O)[O-])cc1.Cc1ccc(S(=O)(=O)[O-])cc1 | 100 mg/kg | 0.37 µM | 0.28 µM | 2.04 | -0.7 | 0.36 µM | 39 mg/kg
10 | C[n+]1ccc(Nc2ccc(/C=C/c3ccc(Nc4cc[n+](C)c5ccc(N)cc45)cc3)cc2)cc1.[Br-].[Br-] | 16 mg/kg | 0.38 µM | 0.15 µM | 2.19 | 0.31 | 0.53 µM | 1.8 mg/kg
11 | COc1cc(C(=O)Nc2ccc[n+](C)c2)ccc1NC(=O)c1ccc(C(=O)Nc2ccc(C(=O)Nc3ccc[n+](C)c3)cc2OC)cc1.Cc1ccc(S(=O)(=O)[O-])cc1.Cc1ccc(S(=O)(=O)[O-])cc1 | 25 mg/kg | 0.84 µM | 0.72 µM | 1.89 | -0.41 | 0.9 µM | 13 mg/kg
12 | C[n+]1ccc(Nc2ccc(NC(=O)/C=C/c3ccc(Nc4cc[n+](C)c5ccc(N)cc45)cc3)cc2)cc1.Cc1ccc(S(=O)(=O)[O-])cc1.Cc1ccc(S(=O)(=O)[O-])cc1 | 40 mg/kg | 0.46 µM | 0.09 µM | 2.24 | 0.03 | 0.41 µM | 1.6 mg/kg
13 | CCC[n+]1ccc(Nc2ccc(NC(=O)c3ccc(Nc4cc[n+](CCC)c5ccc(N)cc45)cc3)cc2)cc1.[Br-].[Br-] | 10 mg/kg | 0.68 µM | 0.1 µM | 2.07 | 0.46 | 1.1 µM | 1.8 mg/kg
14 | C[n+]1ccc(Nc2ccc(NC(=O)c3ccc(Nc4c(-c5ccccc5)c[n+](C)c5ccc(N)cc45)cc3)cc2)cc1.[Br-].[Br-] | 22 mg/kg | 0.39 µM | 0.15 µM | 1.78 | 0.65 | 0.63 µM | 10 mg/kg
15 | C[n+]1ccc(Nc2ccc(C(=O)Nc3ccc(Nc4cc[n+](C)c5ccc(N)cc45)cc3)cc2)cc1.Cc1ccc(S(=O)(=O)[O-])cc1.Cc1ccc(S(=O)(=O)[O-])cc1 | 11 mg/kg | 0.6 µM | 0.12 µM | 2.3 | 0.05 | 1.2 µM | 1.2 mg/kg
16 | C[n+]1ccc(Nc2ccc(NC(=O)/C=C/c3ccc(/C=C/C(=O)Nc4ccc(Nc5cc[n+](C)cc5)cc4)cc3)cc2)cc1.Cc1ccc(S(=O)(=O)[O-])cc1.Cc1ccc(S(=O)(=O)[O-])cc1 | 10 mg/kg | 0.31 µM | 0.11 µM | 1.88 | -0.7 | 0.38 µM | 5.1 mg/kg
17 | C[n+]1cccc(NC(=O)c2ccc(NC(=O)c3ccc(Nc4c5ccccc5[n+](C)c5ccc(N)cc45)cc3)cc2)c1.[Cl-].[Cl-] | 55 mg/kg | 0.17 µM | 0.09 µM | 2.36 | 0.44 | 0.25 µM | 9 mg/kg
18 | C[n+]1cccc(NC(=O)c2ccc(NC(=O)c3ccc(C(=O)Nc4ccc(C(=O)Nc5ccc[n+](C)c5)c5ccccc45)cc3)cc2)c1.Cc1ccc(S(=O)(=O)[O-])cc1.Cc1ccc(S(=O)(=O)[O-])cc1 | 75 mg/kg | 2.2 µM | 2.3 µM | 1.65 | 0.08 | 2.6 µM | 72 mg/kg
19 | C/C(=N\NC(=N)N)c1ccc(NC(=O)Nc2ccc(Nc3c4ccccc4[n+](C)c4cc(N)ccc34)cc2)cc1.Cl.[Cl-] | 22 mg/kg | 0.13 µM | 0.09 µM | 2.55 | 0.69 | 0.2 µM | 0.3 mg/kg
20 | C[n+]1cccc2ccc(NC(=O)c3ccc(-c4ccc(-c5ccc(-c6ccc(C(=O)Nc7ccc8ccc[n+](C)c8c7)cc6)cc5)cc4)cc3)cc21.Cc1ccc(S(=O)(=O)[O-])cc1.Cc1ccc(S(=O)(=O)[O-])cc1 | 52 mg/kg | 0.17 µM | 0.14 µM | 1.85 | -0.57 | 0.28 µM | 20 mg/kg
21 | C[n+]1ccc(Nc2ccc(NC(=O)c3ccc(-c4ccc(Nc5cc[n+](C)cc5)cc4)cc3)cc2)cc1.[I-].[I-] | 2.6 mg/kg | 2.04 µM | 0.37 µM | 2.28 | 0.06 | 3.01 µM | 0.6 mg/kg
22 | C[n+]1cccc(NC(=O)c2ccc(NC(=O)c3ccc(C(=O)Nc4ccc(C(=O)Nc5ccc[n+](C)c5)c(N)c4)cc3N)cc2)c1.Cc1ccc(S(=O)(=O)[O-])cc1.Cc1ccc(S(=O)(=O)[O-])cc1 | 9 mg/kg | 0.39 µM | 0.15 µM | 2.32 | -0.7 | 0.54 µM | 1.4 mg/kg
23 | CC(=O)Nc1ccc2c(Nc3ccc(NC(=O)c4ccc(Nc5cc[n+](C)cc5)cc4)cc3)cc[n+](C)c2c1.Cc1ccc(S(=O)(=O)[O-])cc1.Cc1ccc(S(=O)(=O)[O-])cc1 | 97 mg/kg | 0.34 µM | 0.13 µM | 2.26 | -0.1 | 0.53 µM | 10 mg/kg
24 | COc1cc(NC(=O)c2ccc(Nc3cc[n+](C)cc3)cc2)ccc1Nc1cc[n+](C)c2cc(N)ccc12.[Br-].[Br-] | 14 mg/kg | 0.69 µM | 0.15 µM | 2.23 | 0.14 | 1.18 µM | 3 mg/kg
25 | Cc1cc(Nc2ccc(NC(=O)c3ccc(C(=O)Nc4ccc(Nc5cc(C)[n+](C)c(N)n5)cc4)cc3)cc2)nc(N)[n+]1C.Cc1ccc(S(=O)(=O)[O-])cc1.Cc1ccc(S(=O)(=O)[O-])cc1 | 250 mg/kg | 0.5 µM | 0.4 µM | 2.12 | -0.71 | 0.8 µM | 75 mg/kg
26 | Cc1cc(Nc2ccc(NC(=O)c3ccc(C(=O)Nc4ccc(C(=O)Nc5ccc[n+](C)c5)cc4)cc3)cc2)nc(N)n1.I.[I-] | 19 mg/kg | 0.39 µM | 0.27 µM | 2 | -0.3 | 0.49 µM | 10 mg/kg
